Experiments:
Rattus norvegicus [1] = settings: oral, gavage
Rattus norvegicus [2] = settings: short-term, duration: 28 days, oral, gavage, F, Sprague-Dawley
[3] = chronic, duration: 93 days, F, Endocrine: Thyroid follicular epithelial hypertrophy
[4] = chronic, duration: 93 days, M/F, Hematological: Decreased RBC, hemoglobin, and hematocrit / increased reticulocytes / erythroid hypertrophy in bone marrow and …
[5] = chronic, duration: 93 days, M/F, Respiratory: Degeneration/atrophy of nasal olfactory epithelium at ?100 mg/kg/day and respiratory metaplasia at 500 mg/kg/day
[6] = chronic, duration: 93 days, M, Body Weight: 19% decrease in body weight gain
[7] = developmental, duration: 20 days, F, Body Weight: Decreased maternal weight gain (19%) + Developmental: Decreased fetal weight (10%)
[8] = developmental, duration: 126 days, M/F, Developmental: Decreased pup body weight (17-18%) during lactation period
[9] = reproduction developmental, duration: 126 days, M, Body Weight: Decreased weight gain (12%) / decreased maternal weight gain during GDs 0-7 and increased maternal weight gain during …
[10] = subchronic, duration: 44 days, F, Immunotoxicological: Thymic atrophy in 3/9 females
[11] = subchronic, duration: 44 days, M, Hematological: Decreased hemoglobin levels / increased reticulocytes at 315 mg/kg/day
[12] = subchronic, duration: 90 days, M/F, Sprague-Dawley, Hematological: Slight decreases in RBC, hemoglobin, and hematocrit and increases in reticulocytes

Work on `O=C(O)C(F)(F)C(F)(F)C(F)(F)C(F)(F)C(F)(F)F` [Perfluorohexanoic acid] yielded an LOAEL (Rattus norvegicus [1]; acute, duration: 1 days, F, Sprague-Dawley, Death: 1/4 died at […] / 3/3 died at 5,000 mg/kg/day) of 1750 mg/kg-day, an LOAEL (Rattus norvegicus [1]; acute, duration: 1 days, F, Sprague-Dawley, Neurological: Abnormal gait, salivation, ataxia, lethargy) of 175 mg/kg-day and an LOAEL (Rattus norvegicus [1]; chronic, duration: 104 weeks, F, Sprague-Dawley, Death: 36, 43, 33, and 22% survival rate in females at 0, 5, 30, and 200 mg/kg/day, respectivel) of 200 mg/kg-day. The LOAEL (Rattus norvegicus [1]; chronic, duration: 104 weeks, F, Sprague-Dawley, Hematological: 8.1% reduction in mean RBC count and 5.2% reduction in hemoglobin at 51 weeks / 23.6 and 53.6% increase in reticulocyte …) was 200 mg/kg-day, the NOAEL (Rattus norvegicus [1]; chronic, duration: 104 weeks, M, Sprague-Dawley, Hematological: 8.1% reduction in mean RBC count and 5.2% reduction in hemoglobin at 51 weeks / 23.6 and 53.6% increase in reticulocyte …) was 100 mg/kg-day and the LOAEL (Rattus norvegicus [1]; [3]) was 500 mg/kg-day. It also gave an NOAEL (Rattus norvegicus [1]; [3]) of 100 mg/kg-day, an LOAEL (Rattus norvegicus [1]; [4]) of 500 mg/kg-day and an NOAEL (Rattus norvegicus [1]; [4]) of 100 mg/kg-day. For the same molecule, the NOAEL (Rattus norvegicus [1]; chronic, duration: 93 days, M/F, Hepatic: Hepatocellular hypertrophy in males at ?100 mg/kg/day and females at 500 mg/kg/day) was 500 mg/kg-day, the LOAEL (Rattus norvegicus [1]; [5]) was 100 mg/kg-day and the NOAEL (Rattus norvegicus [1]; [5]) was 20 mg/kg-day. For the same molecule, the LOAEL (Rattus norvegicus [1]; [6]) was 500 mg/kg-day, the NOAEL (Rattus norvegicus [1]; [6]) was 200 mg/kg-day and the LOAEL (Rattus norvegicus [1]; chronic, duration: 126 days, F) was 500 mg/kg-day. It also gave an NOAEL (Rattus norvegicus [1]; chronic, duration: 126 days, F) of 100 mg/kg-day, an NOAEL (Rattus norvegicus [1]; chronic, duration: 126 days, M/F) of 500 mg/kg-day and an LOAEL (Rattus norvegicus [1]; [7]) of 500 mg/kg-day. For the same molecule, the NOAEL (Rattus norvegicus [1]; [7]) was 100 mg/kg-day, the LOAEL (Rattus norvegicus [1]; [8]) was 500 mg/kg-day and the NOAEL (Rattus norvegicus [1]; [8]) was 100 mg/kg-day. It also gave an NOAEL (Rattus norvegicus [1]; reproduction developmental, duration: 44 days, M/F, Gastrointestinal: Stomach erosions/ulceration in dying or sacrificed in extremis rats administered 450 mg/kg/day for 4 days + Hepatic: …) of 315 mg/kg-day, an LOAEL (Rattus norvegicus [1]; [9]) of 100 mg/kg-day and an NOAEL (Rattus norvegicus [1]; [9]) of 20 mg/kg-day. It also gave an NOAEL (Rattus norvegicus [1]; subchronic, duration: 44 days, F) of 315 mg/kg-day, an LOAEL (Rattus norvegicus [1]; [10]) of 315 mg/kg-day and an NOAEL (Rattus norvegicus [1]; [10]) of 150 mg/kg-day. For the same molecule, the NOAEL (Rattus norvegicus [1]; subchronic, duration: 44 days, M) was 315 mg/kg-day, the LOAEL (Rattus norvegicus [1]; subchronic, duration: 44 days, M/F, Death: 8/30 deaths (includes rats sacrificed in extremis) during first 4 days of exposure) was 450 mg/kg-day and the LOAEL (Rattus norvegicus [1]; [11]) was 150 mg/kg-day. It also gave an NOAEL (Rattus norvegicus [1]; [11]) of 50 mg/kg-day, an LOAEL (Rattus norvegicus [1]; [12]) of 200 mg/kg-day and an NOAEL (Rattus norvegicus [1]; [12]) of 50 mg/kg-day. The NOAEL (Rattus norvegicus [1]; subchronic, duration: 90 days, M/F, Sprague-Dawley, Hepatic: Centrilobular hepatocellular hypertrophy at 200 mg/kg/day) was 200 mg/kg-day, the LOEL (Rattus norvegicus [2]; Clinical chemistry_Alanine aminotransferase) was 500 mg/kg-day and the NOEL (Rattus norvegicus [2]; Clinical chemistry_Albumin) was 1000 mg/kg-day. It also gave an LOEL (Rattus norvegicus [2]; Clinical chemistry_Albumin/globulin ratio) of 1000 mg/kg-day, an LOEL (Rattus norvegicus [2]; Clinical chemistry_Alkaline phosphatase) of 1000 mg/kg-day and an LOEL (Rattus norvegicus [2]; Clinical chemistry_Aspartate aminotransferase) of 500 mg/kg-day. The NOEL (Rattus norvegicus [2]; Clinical chemistry_Cholesterol) was 1000 mg/kg-day, the NOEL (Rattus norvegicus [2]; Clinical chemistry_Creatinine kinase) was 1000 mg/kg-day and the NOEL (Rattus norvegicus [2]; Clinical chemistry_Direct bilirubin) was 1000 mg/kg-day.
